Measured values as given in PubChem BioAssay AID1963969 (Molecular Pharmacology Branch, DTP, NCI, 2024).

Tested on: 817829-284-R-J1-PDC multi-cell spheroid viability
Experiment: Anticancer human tumor 817829-284-R-J1-PDC patient-derived colon adenocarcinoma cell line growth inhibition [PI3K]
Conditions: for IC50: curve of first compound; for viability, T/C: stronger effect = lower value
Source text: Combinatorial screen of targeted agents with the PI3K inhibitors inavolisib, alpelisib, duvelisib, and copanlisib in multi-cell type tumor spheroids
A high-throughput screen of multi-cell type tumor spheroids was designed to identify active combinations of targeted small molecules and PI3K pathway inhibitors. Complex spheroids include a stromal component modeled by human endothelial cells (HUVEC) and fibroblasts modeled by human mesenchymal stem cells (MSCs). The concentration ranges selected for each drug and investigational agent were based upon clinically achievable concentrations if the clinical Cmax of the agent was known.
Compounds. The drugs and investigational agents: inavolisib (NSC800729), alpelisib (NSC765974), duvelisib (NSC772469), copanlisib (NSC816437), ipatasertib (NSC767898), afuresertib (NSC778305), talazoparib (NSC767125), sapanisertib (NSC764658), selumetinib (NSC741078), tovorafenib (DAY101, NSC766906), vemurafenib (NSC761431), ravoxertinib (NSC781343), sotorasib (NSC818433), MRTX1133 (NSC 836407), abemaciclib (NSC 768073), palbociclib (NSC758247), venetoclax (NSC 766270), SY5609 (NSC837396), enzalutamide (NSC755605), and darolutamide (NSC825331), were obtained from the National Cancer Institute (NCI) Developmental Therapeutics Program Chemical Repository. The FDA-approved anticancer drug set is available from the NCI Developmental Therapeutics Program. […] The stock solutions were prepared in dimethyl sulfoxide (DMSO, Sigma-Aldrich, St. Louis, MO, cat. D2650) at 800-fold the tested concentration and stored at -70 degrees C prior to their use. All drugs and investigational agents were tested over a range starting from a high concentration at or near the clinical Cmax and decreasing in half-log increments. If the clinical Cmax for an agent had not been determined, the highest concentration tested was 10 microM.
Cell Culture. All cells were maintained in an incubator at 37 degrees C and 5% CO2 with 95% humidity. The PDC lines were cultured according to standard operating procedures established by the NCI PDMR (https://pdmr.cancer.gov/sops/default.htm). All PDCs were thawed and cultured in Matrigel-coated flasks prepared with a working solution of 1X Ham's F-12 nutrient mix, without supplementation (Invitrogen, Waltham, MA, cat. 11765054), 100 U/mL penicillin-streptomycin (Invitrogen, cat. 15140122), and 2.5% Matrigel (Corning Inc., Corning, NY, cat. 354248) for the first three passages. The 354836-022-R-J1-PDC, 475296-252-R-J1-PDC, and 997726-040-R-J2-PDC lines were cultured in 6A media, which includes advanced DMEM/F-12 (Thermo Fisher Scientific, cat. 12634028), 10 mM HEPES (Thermo Fisher Scientific, cat. 15630080), 1X GlutaMAX supplement (Thermo Fisher Scientific, cat. 35050061), 0.1 mg/mL primocin (InvivoGen, San Diego, CA, cat. ant-pm-2), 10% defined fetal bovine serum, heat inactivated (HyClone Laboratories Inc., Logan, UT, cat. SH30070.03HI), 50% L-WRN conditioned media (ATCC, cat. CRL-3276), 1.25 mM N-Acetyl-L-cysteine (Sigma-Aldrich, cat. A9165), 10 mM nicotinamide (Sigma-Aldrich, cat. N0636), 1X B-27 supplement (Thermo Fisher Scientific, cat. 17504044), 1X N-2 supplement (Thermo Fisher Scientific, cat. 17502048), and 10 microM Y-27632 dihydrochloride (Tocris Bioscience, Bristol, United Kingdom, cat. 1254). The 624824-186-R-J2-PDC line was cultured in 6C/Colon 1B media, which includes all 6A media components plus 50 ng/mL human EGF recombinant protein (Thermo Fisher Scientific, cat. PHG0311). […]

[1] = second compound 0.00316 µM, first compound 0.000316 µM
[2] = second compound 0.00316 µM, first compound 0.001 µM
[3] = second compound 0.00316 µM, first compound 0.00316 µM
[4] = second compound 0.00316 µM, first compound 0.01 µM
[5] = second compound 0.00316 µM, first compound 0.0316 µM
[6] = second compound 0.00316 µM, first compound 0.1 µM
[7] = second compound 0.01 µM, first compound 0.000316 µM
[8] = second compound 0.01 µM, first compound 0.001 µM
[9] = second compound 0.01 µM, first compound 0.00316 µM
[10] = second compound 0.01 µM, first compound 0.01 µM
[11] = second compound 0.01 µM, first compound 0.0316 µM
[12] = second compound 0.01 µM, first compound 0.1 µM
[13] = second compound 0.0316 µM, first compound 0.000316 µM
[14] = second compound 0.0316 µM, first compound 0.001 µM
[15] = second compound 0.0316 µM, first compound 0.00316 µM
[16] = second compound 0.0316 µM, first compound 0.01 µM
[17] = second compound 0.0316 µM, first compound 0.0316 µM
[18] = second compound 0.0316 µM, first compound 0.1 µM
[19] = second compound 0.1 µM, first compound 0.000316 µM
[20] = second compound 0.1 µM, first compound 0.001 µM
[21] = second compound 0.1 µM, first compound 0.00316 µM
[22] = second compound 0.1 µM, first compound 0.01 µM
[23] = second compound 0.1 µM, first compound 0.0316 µM
[24] = second compound 0.1 µM, first compound 0.1 µM
[25] = second compound 0.316 µM, first compound 0.000316 µM
[26] = second compound 0.316 µM, first compound 0.001 µM
[27] = second compound 0.316 µM, first compound 0.00316 µM
[28] = second compound 0.316 µM, first compound 0.01 µM
[29] = second compound 0.316 µM, first compound 0.0316 µM
[30] = second compound 0.316 µM, first compound 0.1 µM
[31] = second compound 1 µM, first compound 0.000316 µM
[32] = second compound 1 µM, first compound 0.001 µM
[33] = second compound 1 µM, first compound 0.00316 µM
[34] = second compound 1 µM, first compound 0.01 µM
[35] = second compound 1 µM, first compound 0.0316 µM
[36] = second compound 1 µM, first compound 0.1 µM
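Further: spheroids exposed to agents for seven days before readout.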
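Wherever viability, T/C is given: percent of vehicle DMSO control viability which is 100%.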

CC(C)n1nc(-c2ccc3oc(N)nc3c2)c2c(N)ncnc21 + CC(Nc1ccc2c(c1)OCCn1cc(N3C(=O)OCC3C(F)F)nc1-2)C(N)=O
IC50 (second compound 0.00316 µM): 0.0067 µM
IC50 (second compound 0.01 µM): 0.0228 µM
IC50 (second compound 0.0316 µM): 0.00864 µM
IC50 (second compound 0.1 µM): 0.00455 µM
IC50 (second compound 0.316 µM): 0.00435 µM
IC50 (second compound 1 µM): < 0.000316 µM
viability, T/C [1]: 112%
viability, T/C [2]: 51.6%
viability, T/C [3]: 65.3%
viability, T/C [4]: 60.2%
viability, T/C [5]: 27.9%
viability, T/C [6]: 16.2%
viability, T/C [7]: 60.2%
viability, T/C [8]: 63.8%
viability, T/C [9]: 69.5%
viability, T/C [10]: 68.1%
viability, T/C [11]: 43.9%
viability, T/C [12]: 14.7%
viability, T/C [13]: 114%
viability, T/C [14]: 73.1%
viability, T/C [15]: 73.9%
viability, T/C [16]: 50.3%
viability, T/C [17]: 28.1%
viability, T/C [18]: 12.8%
viability, T/C [19]: 59.7%
viability, T/C [20]: 38.7%
viability, T/C [21]: 76.4%
viability, T/C [22]: 32%
viability, T/C [23]: 32.1%
viability, T/C [24]: 13.8%
viability, T/C [25]: 53.7%
viability, T/C [26]: 68.9%
viability, T/C [27]: 48.7%
viability, T/C [28]: 41.7%
viability, T/C [29]: 22.2%
viability, T/C [30]: 13.8%
viability, T/C [31]: 56.8%
viability, T/C [32]: 30.8%
viability, T/C [33]: 38.3%
viability, T/C [34]: 27.3%
viability, T/C [35]: 79.8%
viability, T/C [36]: 18.4%

CC1(C)CCC(CN2CCN(c3ccc(C(=O)NS(=O)(=O)c4ccc(NCC5CCOCC5)c([N+](=O)[O-])c4)c(Oc4cnc5[nH]ccc5c4)c3)CC2)=C(c2ccc(Cl)cc2)C1 + CC(Nc1ccc2c(c1)OCCn1cc(N3C(=O)OCC3C(F)F)nc1-2)C(N)=O
IC50 (second compound 0.00316 µM): 4.08 µM
IC50 (second compound 0.01 µM): 3.7 µM
IC50 (second compound 0.0316 µM): 2.67 µM
IC50 (second compound 0.1 µM): 0.605 µM
IC50 (second compound 0.316 µM): 0.0316 µM
IC50 (second compound 1 µM): 2.79 µM
viability, T/C [5]: 74.4%
viability, T/C [6]: 87.8%
viability, T/C (second compound 0.00316 µM, first compound 0.316 µM): 38.3%
viability, T/C (second compound 0.00316 µM, first compound 1 µM): 71.4%
viability, T/C (second compound 0.00316 µM, first compound 3.16 µM): 62.4%
viability, T/C (second compound 0.00316 µM, first compound 10 µM): 5.89%
viability, T/C [11]: 55.4%
viability, T/C [12]: 64.8%
viability, T/C (second compound 0.01 µM, first compound 0.316 µM): 106%
viability, T/C (second compound 0.01 µM, first compound 1 µM): 69.1%
viability, T/C (second compound 0.01 µM, first compound 3.16 µM): 57.3%
viability, T/C (second compound 0.01 µM, first compound 10 µM): 5.49%
viability, T/C [17]: 66.2%
viability, T/C [18]: 107%
viability, T/C (second compound 0.0316 µM, first compound 0.316 µM): 60.8%
viability, T/C (second compound 0.0316 µM, first compound 1 µM): 65.3%
viability, T/C (second compound 0.0316 µM, first compound 3.16 µM): 49.8%
viability, T/C (second compound 0.0316 µM, first compound 10 µM): 6.29%
viability, T/C [23]: 78.9%
viability, T/C [24]: 54.8%
viability, T/C (second compound 0.1 µM, first compound 0.316 µM): 58.1%
viability, T/C (second compound 0.1 µM, first compound 1 µM): 39.4%
viability, T/C (second compound 0.1 µM, first compound 3.16 µM): 39.2%
viability, T/C (second compound 0.1 µM, first compound 10 µM): 3.75%
viability, T/C [29]: 45.7%
viability, T/C [30]: 44.6%
viability, T/C (second compound 0.316 µM, first compound 0.316 µM): 59.5%
viability, T/C (second compound 0.316 µM, first compound 1 µM): 41.2%
viability, T/C (second compound 0.316 µM, first compound 3.16 µM): 60.4%
viability, T/C (second compound 0.316 µM, first compound 10 µM): 3.08%
viability, T/C [35]: 77.2%
viability, T/C [36]: 44%
viability, T/C (second compound 1 µM, first compound 0.316 µM): 70.8%
viability, T/C (second compound 1 µM, first compound 1 µM): 59%
viability, T/C (second compound 1 µM, first compound 3.16 µM): 49%
viability, T/C (second compound 1 µM, first compound 10 µM): 6.25%

Cn1ncnc1[C@H]1c2n[nH]c(=O)c3cc(F)cc(c23)N[C@@H]1c1ccc(F)cc1 + CC(Nc1ccc2c(c1)OCCn1cc(N3C(=O)OCC3C(F)F)nc1-2)C(N)=O
IC50 (second compound 0.00316 µM): > 0.1 µM
IC50 (second compound 0.01 µM): 0.075 µM
IC50 (second compound 0.0316 µM): 0.01 µM
IC50 (second compound 0.1 µM): 0.0477 µM
IC50 (second compound 0.316 µM): 0.0121 µM
IC50 (second compound 1 µM): < 0.000316 µM
viability, T/C [1]: 95.4%
viability, T/C [2]: 58.2%
viability, T/C [3]: 104%
viability, T/C [4]: 35%
viability, T/C [5]: 71.1%
viability, T/C [6]: 53%
viability, T/C [7]: 75.1%
viability, T/C [8]: 66%
viability, T/C [9]: 75%
viability, T/C [10]: 68.3%
viability, T/C [11]: 70.2%
viability, T/C [12]: 43.3%
viability, T/C [13]: 81.7%
viability, T/C [14]: 101%
viability, T/C [15]: 46.9%
viability, T/C [16]: 65%
viability, T/C [17]: 53.5%
viability, T/C [18]: 43.6%
viability, T/C [19]: 65.6%
viability, T/C [20]: 52.2%
viability, T/C [21]: 60.3%
viability, T/C [22]: 70.9%
viability, T/C [23]: 43%
viability, T/C [24]: 46.6%
viability, T/C [25]: 40.1%
viability, T/C [26]: 65.8%
viability, T/C [27]: 61.2%
viability, T/C [28]: 39.4%
viability, T/C [29]: 49.8%
viability, T/C [30]: 33.3%
viability, T/C [31]: 31.9%
viability, T/C [32]: 60.9%
viability, T/C [33]: 43.1%
viability, T/C [34]: 42.3%
viability, T/C [35]: 36.7%
viability, T/C [36]: 20.8%
